Patent US12679843B2, “Pyrrolopyrimidine amines as complement inhibitors” (BioCryst Pharmaceuticals, Inc., priority 2020, dated 2026)

target: Factor D (Homo sapiens, UniProt P00746); test: Factor D esterolytic assay (Z-Lys-SBzl thioester substrate, DTNB, 405 nm); type: biochemical; settings: substrate Z-Lys-SBzl 1.29 mM, 100 mM HEPES, 500 mM NaCl, pH 7.5, 10% DMSO, tested a minimum of three times
In short: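 Run in pH 7.5 HEPES (100 mM) with 500 mM NaCl and 10% DMSO, with compound preincubated at room temperature or not before adding 1.29 mM Z-Lys-SBzl. Free thiol released by Factor D reacts with DTNB, and rate is followed at 405 nm minus 690 nm over 600 s. IC50 derives from rate-based inhibition, minimum three replicates.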

Factor D, sequence (P00746 26-253): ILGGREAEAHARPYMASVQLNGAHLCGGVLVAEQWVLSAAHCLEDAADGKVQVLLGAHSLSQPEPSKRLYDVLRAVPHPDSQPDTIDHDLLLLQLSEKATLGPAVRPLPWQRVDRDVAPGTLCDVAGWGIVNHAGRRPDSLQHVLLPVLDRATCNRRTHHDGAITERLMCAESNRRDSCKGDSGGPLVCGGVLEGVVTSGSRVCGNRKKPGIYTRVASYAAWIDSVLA

SMILES	IC50
CO[C@H]1C[C@@H](C(=O)Nc2cccc(Br)n2)N(C(=O)Cn2c3ccc(C(F)(F)F)cc3c3c(N)ncnc32)C1 [Compound 247d, (2S,4S)-1-(2-(4-amino-6-(trifluoromethyl)-9H-pyrimido[4,5-b]indol-9-yl)acetyl)-N-(6-bromopyridin-2-yl)-4-methoxypyrrolidine-2-carboxamide]	0.1 to 1 µM
CO[C@@H]1C[C@@H](C(=O)Nc2cccc(Br)n2)N(C(=O)Cn2c3ccc(C(F)(F)F)cc3c3c(N)ncnc32)C1 [Compound 248d, (2S,4R)-1-(2-(4-amino-6-(trifluoromethyl)-9H-pyrimido[4,5-b]indol-9-yl)acetyl)-N-(6-bromopyridin-2-yl)-4-methoxypyrrolidine-2-carboxamide]	> 1 µM
N#Cc1ccc(CNC(=O)[C@@H]2CCCN2C(=O)Cn2c3ccccc3c3c(N)ncnc32)cc1 [Compound 250b, (S)-1-(2-(4-amino-9H-pyrimido[4,5-b]indol-9-yl)acetyl)-N-(4-cyanobenzyl)pyrrolidine-2-carboxamide]	> 1 µM
Nc1ncnc2c1c1cc(C(F)(F)F)ccc1n2CC(=O)N1C(=O)OC[C@H]1C(=O)NCc1cccc(Cl)c1F [Compound 251f, (S)-3-(2-(4-amino-6-(trifluoromethyl)-9H-pyrimido[4,5-b]indol-9-yl)acetyl)-N-(3-chloro-2-fluorobenzyl)-2-oxooxazolidine-4-carboxamide]	0.1 to 1 µM
Nc1ncnc2c1c1cc(C(F)(F)F)ccc1n2CC(=O)N1[C@@H]2C[C@@H]2C[C@H]1C(=O)Nc1ccnc(Br)c1 [Compound 259d, (1R,3S,5R)-2-(2-(4-amino-6-(trifluoromethyl)-9H-pyrimido[4,5-b]indol-9-yl)acetyl)-N-(2-bromopyridin-4-yl)-2-azabicyclo[3.1.0]hexane-3-carboxamide]	0.1 to 1 µM
Cc1cc(-c2ccncc2)cc2c3c(N)ncnc3n(CC(=O)N3[C@H](C(=O)Nc4cccc(Br)n4)C[C@@]4(C)C[C@@H]34)c12 [Compound 264a, (1R,3S,5R)-2-(2-(4-amino-8-methyl-6-(pyridin-4-yl)-9H-pyrimido[4,5-b]indol-9-yl)acetyl)-N-(6-bromopyridin-2-yl)-5-methyl-2-azabicyclo[3.1.0]hexane-3-carboxamide]	< 0.1 µM
Cc1cc(O)cc2c3c(N)ncnc3n(CC(=O)N3[C@H](C(=O)Nc4cccc(Br)n4)C[C@@]4(C)C[C@@H]34)c12 [Compound 265a, (1R,3S,5R)-2-(2-(4-amino-6-hydroxy-8-methyl-9H-pyrimido[4,5-b]indol-9-yl)acetyl)-N-(6-bromopyridin-2-yl)-5-methyl-2-azabicyclo[3.1.0]hexane-3-carboxamide]	< 0.1 µM
Nc1ncnc2c1c1cc(C(F)(F)F)ccc1n2CC(=O)N1[C@@H]2C[C@@H]2C[C@H]1C(=O)Nc1cccc(Br)c1 [Compound 266b, (1R,3S,5R)-2-(2-(4-amino-6-(trifluoromethyl)-9H-pyrimido[4,5-b]indol-9-yl)acetyl)-N-(3-bromophenyl)-2-azabicyclo[3.1.0]hexane-3-carboxamide]	< 0.1 µM
Nc1ncnc2c1c1cc(C(F)(F)F)ccc1n2CC(=O)N1[C@@H]2C[C@@H]2C[C@H]1C(=O)Nc1cccc(Cl)n1 [Compound 267c, (1R,3S,5R)-2-(2-(4-amino-6-(trifluoromethyl)-9H-pyrimido[4,5-b]indol-9-yl)acetyl)-N-(6-chloropyridin-2-yl)-2-azabicyclo[3.1.0]hexane-3-carboxamide]	< 0.1 µM
Nc1ncnc2c1c1cc(C(F)(F)F)ccc1n2CC(=O)N1[C@@H]2C[C@@H]2C[C@H]1C(=O)Nc1cccc(Br)c1F [Compound 268b, (1R,3S,5R)-2-(2-(4-amino-6-(trifluoromethyl)-9H-pyrimido[4,5-b]indol-9-yl)acetyl)-N-(3-bromo-2-fluorophenyl)-2-azabicyclo[3.1.0]hexane-3-carboxamide]	< 0.1 µM
C[C@@]12C[C@@H](C(=O)Nc3cccc(Cl)n3)N(C(=O)Cn3c4ccc(C(F)(F)F)cc4c4c(N)ncnc43)[C@@H]1C2 [Compound 269c, (1R,3S,5R)-2-(2-(4-amino-6-(trifluoromethyl)-9H-pyrimido[4,5-b]indol-9-yl)acetyl)-N-(6-chloropyridin-2-yl)-5-methyl-2-azabicyclo[3.1.0]hexane-3-carboxamide]	< 0.1 µM
C[C@@]12C[C@@H](C(=O)Nc3cccc(Br)n3)N(C(=O)Cn3c4ccc(-c5ccccc5)cc4c4c(N)ncnc43)[C@@H]1C2 [Compound 270a, (1R,3S,5R)-2-(2-(4-amino-6-phenyl-9H-pyrimido[4,5-b]indol-9-yl)acetyl)-N-(6-bromopyridin-2-yl)-5-methyl-2-azabicyclo[3.1.0]hexane-3-carboxamide]	< 0.1 µM

The remaining lines, values ahead:

IC50	SMILES
< 0.1 µM	Nc1ncnc2c1c1cc(C(F)(F)F)ccc1n2CC(=O)N1C[C@H](F)C[C@H]1C(=O)Nc1cccc(Cl)n1 [Compound 246b, (2S,4R)-1-(2-(4-amino-6-(trifluoromethyl)-9H-pyrimido[4,5-b]indol-9-yl)acetyl)-N-(6-chloropyridin-2-yl)-4-fluoropyrrolidine-2-carboxamide]
< 0.1 µM	COc1cccc2c1c1c(N)ncnc1n2CC(=O)N1[C@H](C(=O)Nc2nc(Br)ccc2C)C[C@@]2(C)C[C@@H]12 [Compound 249a, (1R,3S,5R)-2-(2-(4-amino-5-methoxy-9H-pyrimido[4,5-b]indol-9-yl)acetyl)-N-(6-bromo-3-methylpyridin-2-yl)-5-methyl-2-azabicyclo[3.1.0]hexane-3-carboxamide]
< 0.1 µM	COc1ccc2c(c1)c1c(N)ncnc1n2CC(=O)N1[C@H](C(=O)Nc2nc(Br)ccc2C)C[C@@]2(C)C[C@@H]12 [Compound 252a, (1R,3S,5R)-2-(2-(4-amino-6-methoxy-9H-pyrimido[4,5-b]indol-9-yl)acetyl)-N-(6-bromo-3-methylpyridin-2-yl)-5-methyl-2-azabicyclo[3.1.0]hexane-3-carboxamide]
< 0.1 µM	COc1ccc2c3c(N)ncnc3n(CC(=O)N3[C@H](C(=O)Nc4nc(Br)ccc4C)C[C@@]4(C)C[C@@H]34)c2c1 [Compound 253a, (1R,3S,5R)-2-(2-(4-amino-7-methoxy-9H-pyrimido[4,5-b]indol-9-yl)acetyl)-N-(6-bromo-3-methylpyridin-2-yl)-5-methyl-2-azabicyclo[3.1.0]hexane-3-carboxamide]
< 0.1 µM	COc1cccc2c3c(N)ncnc3n(CC(=O)N3[C@H](C(=O)Nc4nc(Br)ccc4C)C[C@@]4(C)C[C@@H]34)c12 [Compound 254a, (1R,3S,5R)-2-(2-(4-amino-8-methoxy-9H-pyrimido[4,5-b]indol-9-yl)acetyl)-N-(6-bromo-3-methylpyridin-2-yl)-5-methyl-2-azabicyclo[3.1.0]hexane-3-carboxamide]
< 0.1 µM	Cc1ccc(-c2cc(C)c3c(c2)c2c(N)ncnc2n3CC(=O)N2[C@H](C(=O)Nc3cccc(Br)n3)C[C@@]3(C)C[C@@H]23)cc1 [Compound 255c, (1R,3S,5R)-2-(2-(4-amino-8-methyl-6-(p-tolyl)-9H-pyrimido[4,5-b]indol-9-yl)acetyl)-N-(6-bromopyridin-2-yl)-5-methyl-2-azabicyclo[3.1.0]hexane-3-carboxamide]
< 0.1 µM	Cc1ccc(-c2cc(C)c3c(c2)c2c(N)ncnc2n3CC(=O)N2[C@@H]3C[C@@H]3C[C@H]2C(=O)Nc2cccc(Br)n2)cc1 [Compound 256a, (1R,3S,5R)-2-(2-(4-amino-8-methyl-6-(p-tolyl)-9H-pyrimido[4,5-b]indol-9-yl)acetyl)-N-(6-bromopyridin-2-yl)-2-azabicyclo[3.1.0]hexane-3-carboxamide]
< 0.1 µM	COc1cc(C)c2c(c1)c1c(N)ncnc1n2CC(=O)N1[C@@H]2C[C@@H]2C[C@H]1C(=O)Nc1cccc(Br)n1 [Compound 257g, (1R,3S,5R)-2-(2-(4-amino-6-methoxy-8-methyl-9H-pyrimido[4,5-b]indol-9-yl)acetyl)-N-(6-bromopyridin-2-yl)-2-azabicyclo[3.1.0]hexane-3-carboxamide]
< 0.1 µM	COc1cc(C)c2c(c1)c1c(N)ncnc1n2CC(=O)N1[C@H](C(=O)Nc2cccc(Br)n2)C[C@@]2(C)C[C@@H]12 [Compound 258a, (1R,3S,5R)-2-(2-(4-amino-6-methoxy-8-methyl-9H-pyrimido[4,5-b]indol-9-yl)acetyl)-N-(6-bromopyridin-2-yl)-5-methyl-2-azabicyclo[3.1.0]hexane-3-carboxamide]
< 0.1 µM	Nc1ncnc2c1c1cc(C(F)(F)F)ccc1n2CC(=O)N1[C@@H]2C[C@@H]2C[C@H]1C(=O)Nc1cncc(Br)n1 [Compound 260a, (1R,3S,5R)-2-(2-(4-amino-6-(trifluoromethyl)-9H-pyrimido[4,5-b]indol-9-yl)acetyl)-N-(6-bromopyrazin-2-yl)-2-azabicyclo[3.1.0]hexane-3-carboxamide]
< 0.1 µM	C[C@@]12C[C@@H](C(=O)Nc3cncc(Br)n3)N(C(=O)Cn3c4ccc(C(F)(F)F)cc4c4c(N)ncnc43)[C@@H]1C2 [Compound 261d, (1R,3S,5R)-2-(2-(4-amino-6-(trifluoromethyl)-9H-pyrimido[4,5-b]indol-9-yl)acetyl)-N-(6-bromopyrazin-2-yl)-5-methyl-2-azabicyclo[3.1.0]hexane-3-carboxamide]
< 0.1 µM	CN(C)c1ccc2c(c1)c1c(N)ncnc1n2CC(=O)N1[C@@H]2C[C@@H]2C[C@H]1C(=O)Nc1cccc(Br)n1 [Compound 262a, (1R,3S,5R)-2-(2-(4-amino-6-(dimethylamino)-9H-pyrimido[4,5-b]indol-9-yl)acetyl)-N-(6-bromopyridin-2-yl)-2-azabicyclo[3.1.0]hexane-3-carboxamide]
< 0.1 µM	Cc1cc(-c2ccncc2)cc2c3c(N)ncnc3n(CC(=O)N3[C@@H]4C[C@@H]4C[C@H]3C(=O)Nc3cccc(Br)n3)c12 [Compound 263c, (1R,3S,5R)-2-(2-(4-amino-8-methyl-6-(pyridin-4-yl)-9H-pyrimido[4,5-b]indol-9-yl)acetyl)-N-(6-bromopyridin-2-yl)-2-azabicyclo[3.1.0]hexane-3-carboxamide]
